Results on one compound are retold here after patent US11192877B2, “3-(5-hydroxy-1-oxoisoindolin-2-yl)piperidine-2,6-dione derivatives and uses thereof” (Novartis AG, priority 2018, dated 2021).

The experiment deals with IKZF2 (Helios) (Homo sapiens, UniProt Q96SW2+Q9UKS7). The experiment is described as follows: Prolabel quantification of IKZF2 protein levels in 293GT cells. Type of experiment: cell-based. Particulars: 24 h, Pro-label assay, 293GT cells, 10 μM, read-out: IKZF2 % protein reduction at 10 μM, 24 h.
Chain of IKZF2 (Helios) (Q9UKS7 whole entry): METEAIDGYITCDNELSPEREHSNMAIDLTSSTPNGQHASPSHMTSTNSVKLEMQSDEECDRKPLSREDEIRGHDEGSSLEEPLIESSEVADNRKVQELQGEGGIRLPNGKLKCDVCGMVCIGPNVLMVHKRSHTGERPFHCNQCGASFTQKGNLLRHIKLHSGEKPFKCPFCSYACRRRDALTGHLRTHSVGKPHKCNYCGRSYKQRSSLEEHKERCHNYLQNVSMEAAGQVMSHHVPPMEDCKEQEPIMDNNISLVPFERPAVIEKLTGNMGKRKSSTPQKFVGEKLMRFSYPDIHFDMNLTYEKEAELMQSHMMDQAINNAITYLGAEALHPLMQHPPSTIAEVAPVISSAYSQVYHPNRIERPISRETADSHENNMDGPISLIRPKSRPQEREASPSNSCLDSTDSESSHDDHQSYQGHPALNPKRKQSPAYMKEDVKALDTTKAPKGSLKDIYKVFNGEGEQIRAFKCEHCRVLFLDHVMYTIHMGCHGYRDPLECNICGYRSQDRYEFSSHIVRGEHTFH
Chain of IKZF2 (Helios) (Q96SW2 whole entry): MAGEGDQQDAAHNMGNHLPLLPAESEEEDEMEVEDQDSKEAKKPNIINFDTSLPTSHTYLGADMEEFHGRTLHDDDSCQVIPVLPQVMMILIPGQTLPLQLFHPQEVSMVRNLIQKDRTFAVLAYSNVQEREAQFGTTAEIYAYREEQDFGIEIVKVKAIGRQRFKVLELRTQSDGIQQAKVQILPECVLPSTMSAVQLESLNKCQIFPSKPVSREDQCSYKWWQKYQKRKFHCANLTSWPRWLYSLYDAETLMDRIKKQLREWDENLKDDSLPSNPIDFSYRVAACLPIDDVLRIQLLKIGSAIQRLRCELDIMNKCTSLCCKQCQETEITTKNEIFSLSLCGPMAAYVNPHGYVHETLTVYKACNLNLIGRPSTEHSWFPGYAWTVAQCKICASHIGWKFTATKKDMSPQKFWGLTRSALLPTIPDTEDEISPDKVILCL
Chain of IKZF2 (Helios) (Q16531 whole entry partner): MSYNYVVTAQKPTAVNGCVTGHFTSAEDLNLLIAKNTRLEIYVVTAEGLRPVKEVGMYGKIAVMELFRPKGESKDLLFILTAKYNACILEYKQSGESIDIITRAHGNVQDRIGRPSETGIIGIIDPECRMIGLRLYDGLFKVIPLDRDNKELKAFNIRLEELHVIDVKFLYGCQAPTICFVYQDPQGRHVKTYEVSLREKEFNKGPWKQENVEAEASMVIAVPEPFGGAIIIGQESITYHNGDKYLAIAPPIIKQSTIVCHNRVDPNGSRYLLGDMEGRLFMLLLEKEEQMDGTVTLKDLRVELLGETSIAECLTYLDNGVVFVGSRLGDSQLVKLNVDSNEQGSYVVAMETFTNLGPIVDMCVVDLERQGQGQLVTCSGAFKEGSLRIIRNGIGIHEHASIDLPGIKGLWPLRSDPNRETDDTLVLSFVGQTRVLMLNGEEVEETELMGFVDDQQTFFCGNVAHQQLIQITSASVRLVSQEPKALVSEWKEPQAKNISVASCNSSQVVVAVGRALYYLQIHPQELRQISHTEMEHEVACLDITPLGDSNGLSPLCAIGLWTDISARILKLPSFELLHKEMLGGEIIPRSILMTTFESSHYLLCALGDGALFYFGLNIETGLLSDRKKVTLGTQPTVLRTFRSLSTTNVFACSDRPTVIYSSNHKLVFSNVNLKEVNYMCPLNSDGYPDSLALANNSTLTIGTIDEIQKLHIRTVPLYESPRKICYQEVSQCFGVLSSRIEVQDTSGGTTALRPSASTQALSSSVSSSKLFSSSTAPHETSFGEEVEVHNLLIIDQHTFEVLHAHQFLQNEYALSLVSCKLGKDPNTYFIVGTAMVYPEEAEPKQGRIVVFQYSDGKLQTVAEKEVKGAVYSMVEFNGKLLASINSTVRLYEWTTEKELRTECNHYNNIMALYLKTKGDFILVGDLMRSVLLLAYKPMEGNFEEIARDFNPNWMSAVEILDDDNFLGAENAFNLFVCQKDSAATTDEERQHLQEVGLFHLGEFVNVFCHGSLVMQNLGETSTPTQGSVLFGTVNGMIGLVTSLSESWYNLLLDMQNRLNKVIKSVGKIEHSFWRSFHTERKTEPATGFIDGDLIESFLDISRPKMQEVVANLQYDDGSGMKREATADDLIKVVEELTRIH

In the case of `CCN(CC)[C@H]1CCC[C@@H]1Oc1cc2c(cc1F)C(=O)N(C1CCC(=O)NC1=O)C2` (stereo partly drawn) [I-216, 3-(5-(((1S,2S)-2-(diethylamino)cyclopentyl)oxy)-6-fluoro-1-oxoisoindolin-2-yl)piperidine-2,6-dione], the IKZF2 % protein reduction at 10 µM was determined as 60%.
